This is an account of results in ChEMBL document CHEMBL2169878 (J Med Chem, 2012).

A value given as a limit tells only on which side of the number the result lay.

For data set [1], the system named is Salmonella typhimurium. The experiment in a line: Mutagenicity against Salmonella typhimurium TA98 assessed as revertants at 70 uM incubated for 90 mins followed by drug washout measured after 2 days relative to positive control. Type of data set: toxicity, organism-based. The note with it: salmonella enterica subsp. enterica serovar typhimurium.
Data set [2] has as its system Salmonella typhimurium. The experiment in a line: Mutagenicity against Salmonella typhimurium TA100 assessed as revertants at 4 uM incubated for 90 mins followed by drug washout measured after 2 days relative to positive control. Type of data set: toxicity, organism-based. The note with it: salmonella enterica subsp. enterica serovar typhimurium, 1.5 h.
Data set [3] has as its system Salmonella typhimurium. Nature of the data set: Mutagenicity against Salmonella typhimurium TA98 assessed as revertants at 35 uM incubated for 90 mins followed by drug washout measured after 2 days relative to positive control. The note with it: salmonella enterica subsp. enterica serovar typhimurium, 1.5 h. The data set is classed as toxicity, organism-based.
The test system of data set [4] is Salmonella typhimurium. The experiment in a line: Mutagenicity against Salmonella typhimurium TA100 assessed as revertants at 2 uM incubated for 90 mins followed by drug washout measured after 2 days relative to positive control. The data set is classed as toxicity, organism-based. The note with it: salmonella enterica subsp. enterica serovar typhimurium.
The test system of data set [5] is Salmonella typhimurium. Nature of the data set: Mutagenicity against Salmonella typhimurium TA98 assessed as revertants at 18 uM incubated for 90 mins followed by drug washout measured after 2 days relative to positive control. Type of data set: toxicity, organism-based. The note with it: salmonella enterica subsp. enterica serovar typhimurium.
Data set [6] deals with Salmonella typhimurium. Nature of the data set: Mutagenicity against Salmonella typhimurium TA100 assessed as revertants at 18 uM incubated for 90 mins followed by drug washout measured after 2 days relative to positive control. Type of data set: toxicity, organism-based. The note with it: salmonella enterica subsp. enterica serovar typhimurium.
For data set [7], the system named is Salmonella typhimurium. The experiment in a line: Mutagenicity against Salmonella typhimurium TA98 assessed as revertants at 2 uM incubated for 90 mins followed by drug washout measured after 2 days relative to positive control. The data set is classed as toxicity, organism-based. The note with it: salmonella enterica subsp. enterica serovar typhimurium, 1.5 h.

Data set [8] in a line: Cytotoxicity against human HepG2 cells after 24 hrs by neutral red dye uptake assay. The note with it: read-out: TC50. The data set is classed as cell-based.
Data set [9] concerns Salmonella typhimurium. Nature of the data set: Mutagenicity against Salmonella typhimurium TA100 assessed as revertants at 9 uM incubated for 90 mins followed by drug washout measured after 2 days relative to positive control. The data set is classed as toxicity, organism-based. The note with it: salmonella enterica subsp. enterica serovar typhimurium, 1.5 h.
For data set [10], the system named is Salmonella typhimurium. The experiment in a line: Mutagenicity against Salmonella typhimurium TA100 assessed as revertants at 35 uM incubated for 90 mins followed by drug washout measured after 2 days relative to positive control. Type of data set: toxicity, organism-based. The note with it: salmonella enterica subsp. enterica serovar typhimurium.
Data set [11] relates to Plasmodium falciparum. Nature of the data set: Antiplasmodial activity against chloroquine-sensitive Plasmodium falciparum D10 infected in human RBC after 72 hrs by parasite lactate dehydrogenase assay. Type of data set: functional, organism-based. The note with it: D10, 72 h.
Data set [12] relates to Plasmodium falciparum. The experiment in a line: Resistance ratio of IC50 for chloroquine-resistant Plasmodium falciparum K1 to IC50 for chloroquine-sensitive Plasmodium falciparum NF54. Type of data set: functional.
The test system of data set [13] is Salmonella typhimurium. Nature of the data set: Mutagenicity against Salmonella typhimurium TA100 assessed as revertants at 70 uM incubated for 90 mins followed by drug washout measured after 2 days relative to positive control. The note with it: salmonella enterica subsp. enterica serovar typhimurium. The data set is classed as toxicity, organism-based.
Data set [14] has as its system Salmonella typhimurium. Nature of the data set: Mutagenicity against Salmonella typhimurium TA98 assessed as revertants at 9 uM incubated for 90 mins followed by drug washout measured after 2 days relative to positive control. Type of data set: toxicity, organism-based. The note with it: salmonella enterica subsp. enterica serovar typhimurium.
In data set [15] the test system is Salmonella typhimurium. The experiment in a line: Mutagenicity against Salmonella typhimurium TA98 assessed as revertants at 4 uM incubated for 90 mins followed by drug washout measured after 2 days relative to positive control. The data set is classed as toxicity, organism-based. The note with it: salmonella enterica subsp. enterica serovar typhimurium.
The subject of data set [16] is Plasmodium falciparum. Nature of the data set: Antiplasmodial activity against chloroquine-resistant Plasmodium falciparum W2 infected in human RBC after 72 hrs by parasite lactate dehydrogenase assay. The data set is classed as functional, organism-based. The note with it: W2, 72 h.
The subject of data set [17] is Plasmodium falciparum. Nature of the data set: Antiplasmodial activity against chloroquine-resistant Plasmodium falciparum K1 infected in human erythrocytes assessed as inhibition of [3H]hypoxanthine incorporation incubated for 48 hrs prior to [3H]hypoxanthine addition measured after 48 hrs by liquid scintillation counting. The data set is classed as functional, organism-based.

The subject of data set [18] is Plasmodium falciparum. The experiment in a line: Resistance ratio of IC50 for chloroquine-resistant Plasmodium falciparum W2 to IC50 for chloroquine-sensitive Plasmodium falciparum D10. Type of data set: functional.
The subject of data set [19] is Plasmodium falciparum. The experiment in a line: Antiplasmodial activity against chloroquine-sensitive Plasmodium falciparum NF54 infected in human erythrocytes assessed as inhibition of [3H]hypoxanthine incorporation incubated for 48 hrs prior to [3H]hypoxanthine addition measured after 48 hrs by liquid scintillation counting. The data set is classed as functional, organism-based.

The nature of data set [20]: Cytotoxicity against mouse NIH3T3 cells after 24 hrs by neutral red dye uptake assay. The data set is classed as cell-based. The note with it: read-out: TC50.
For data set [21], the system named is Homo sapiens. Nature of the data set: Volume of distribution in po dosed human measured in whole blood. Type of data set: ADME, organism-based. The note with it: in vivo.
Data set [22] can be described thus: Half life in po dosed human plasma. Type of data set: ADME, organism-based.
Data set [23] concerns Salmonella typhimurium. The experiment in a line: Mutagenicity against Salmonella typhimurium TA100 assessed as revertants at 5 uM incubated for 90 mins followed by drug washout measured after 2 days relative to positive control. The data set is classed as toxicity, organism-based. The note with it: salmonella enterica subsp. enterica serovar typhimurium, 1.5 h.
Data set [24] has as its system Salmonella typhimurium. The experiment in a line: Mutagenicity against Salmonella typhimurium TA100 assessed as revertants at […] incubated for 90 mins followed by drug washout measured after 2 days relative to positive control. Type of data set: toxicity, organism-based. The note with it: salmonella enterica subsp. enterica serovar typhimurium.
For data set [25], the system named is Salmonella typhimurium. Nature of the data set: Mutagenicity against Salmonella typhimurium TA98 assessed as revertants at 10 uM incubated for 90 mins followed by drug washout measured after 2 days relative to positive control. The data set is classed as toxicity, organism-based. The note with it: salmonella enterica subsp. enterica serovar typhimurium, 1.5 h.

Data set [26] relates to Salmonella typhimurium. The experiment in a line: Mutagenicity against Salmonella typhimurium TA98 assessed as revertants at 20 uM incubated for 90 mins followed by drug washout measured after 2 days relative to positive control. The note with it: salmonella enterica subsp. enterica serovar typhimurium, 1.5 h. Type of data set: toxicity, organism-based.
In data set [27] the test system is Salmonella typhimurium. The experiment in a line: Mutagenicity against Salmonella typhimurium TA100 assessed as revertants at 40 uM incubated for 90 mins followed by drug washout measured after 2 days relative to positive control. Type of data set: toxicity, organism-based. The note with it: salmonella enterica subsp. enterica serovar typhimurium.
Data set [28] relates to Salmonella typhimurium. Nature of the data set: Mutagenicity against Salmonella typhimurium TA100 assessed as revertants at 10 uM incubated for 90 mins followed by drug washout measured after 2 days relative to positive control. The data set is classed as toxicity, organism-based. The note with it: salmonella enterica subsp. enterica serovar typhimurium.
For data set [29], the system named is Salmonella typhimurium. Nature of the data set: Mutagenicity against Salmonella typhimurium TA98 assessed as revertants at 5 uM incubated for 90 mins followed by drug washout measured after 2 days relative to positive control. The data set is classed as toxicity, organism-based. The note with it: salmonella enterica subsp. enterica serovar typhimurium, 1.5 h.

Data set [30] has as its system Salmonella typhimurium. The experiment in a line: Mutagenicity against Salmonella typhimurium TA100 assessed as revertants at 20 uM incubated for 90 mins followed by drug washout measured after 2 days relative to positive control. The data set is classed as toxicity, organism-based. The note with it: salmonella enterica subsp. enterica serovar typhimurium, 1.5 h.

The test system of data set [31] is Salmonella typhimurium. Nature of the data set: Mutagenicity against Salmonella typhimurium TA98 assessed as revertants at 40 uM incubated for 90 mins followed by drug washout measured after 2 days relative to positive control. The data set is classed as toxicity, organism-based. The note with it: salmonella enterica subsp. enterica serovar typhimurium.
Data set [32] relates to Salmonella typhimurium. The experiment in a line: Mutagenicity against Salmonella typhimurium TA100 assessed as revertants at 80 uM incubated for 90 mins followed by drug washout measured after 2 days relative to positive control. The note with it: salmonella enterica subsp. enterica serovar typhimurium. The data set is classed as toxicity, organism-based.
Data set [33] deals with Salmonella typhimurium. The experiment in a line: Mutagenicity against Salmonella typhimurium TA98 assessed as revertants at […] incubated for 90 mins followed by drug washout measured after 2 days relative to positive control. Type of data set: toxicity, organism-based. The note with it: salmonella enterica subsp. enterica serovar typhimurium.
Data set [34] concerns Salmonella typhimurium. The experiment in a line: Mutagenicity against Salmonella typhimurium TA98 assessed as revertants at 80 uM incubated for 90 mins followed by drug washout measured after 2 days relative to positive control. Type of data set: toxicity, organism-based. The note with it: salmonella enterica subsp. enterica serovar typhimurium, 1.5 h.
Data set [35] has as its system Homo sapiens. Nature of the data set: Volume of distribution in po dosed human measured in plasma. The data set is classed as ADME, organism-based. The note with it: in vivo.
The subject of data set [36] is Heart. The experiment in a line: Cardiotoxicity against Sprague-Dawley rat Langendorff perfused heart assessed as QT time interval at 30 uM by electrophysiological analysis (reference value: 68.51 2.73 ms). Type of data set: toxicity, tissue-based.
For data set [37], the system named is Heart. The experiment in a line: Cardiotoxicity against Sprague-Dawley rat Langendorff perfused heart assessed as QT time interval at 10 uM by electrophysiological analysis (reference value: 68.51 2.73 ms). The data set is classed as toxicity, tissue-based.

Regarding `Clc1ccc(C(Nc2ccnc3cc(Cl)ccc23)c2ccc(Cn3ccnc3)cc2)cc1` (racemic), the Activity with Salmonella typhimurium [1] was 2%; with Salmonella typhimurium [2], 6%; in the data set on Salmonella typhimurium [3] it was 3%; in the data set on Salmonella typhimurium [4], 6%; in the data set on Salmonella typhimurium [5], 3%; in the data set with Salmonella typhimurium [6], 5%. For the same compound, the Activity in the data set with Salmonella typhimurium [7] was found to be 0%; in the data set with Salmonella typhimurium [9], 7%; in the data set on Salmonella typhimurium [10], 2%; with Salmonella typhimurium [13] it was 2%; in the data set on Salmonella typhimurium [14], 0%; in the data set with Salmonella typhimurium [15] it was 7%. Also, the CC50 at 24 h in data set [8] is 22 µM; in data set [20], 35 µM. Besides, the IC50 in the data set on Plasmodium falciparum [11] worked out at 0.03 µM; with Plasmodium falciparum [16], 0.057 µM; in the data set with Plasmodium falciparum [17] it was 0.022 µM; with Plasmodium falciparum [19], 0.018 µM. Further, the “Ratio IC50” value in the data set on Plasmodium falciparum [12] is on record as 1.2; in the data set with Plasmodium falciparum [18], 1.9.

For `CCN(CC)CCCC(C)Nc1ccnc2cc(Cl)ccc12` (centres undefined) [CHLOROQUINE], the Vd with Homo sapiens [21] and with Homo sapiens [35] was 200 L/kg throughout. The same compound showed a half-life in data set [22] of 20 days. Besides, the Activity with Salmonella typhimurium [23] is reported as 21%; in the data set on Salmonella typhimurium [24], 36%; in the data set on Salmonella typhimurium [25], 61%; in the data set on Salmonella typhimurium [26], 29%; with Salmonella typhimurium [27], 38%; in the data set with Salmonella typhimurium [28] it was 26%. Also, the Activity is reported as 14% with Salmonella typhimurium [29]; 7% with Salmonella typhimurium [30]; 19% in the data set on Salmonella typhimurium [31]; 23% in the data set on Salmonella typhimurium [32]; 24% with Salmonella typhimurium [33]; 50% with Salmonella typhimurium [34]. Besides, the CC50 at 24 h in data set [8] was 4.3 µM; in data set [20], over 80 µM.

On to `CC(C)(C)c1ccc(C(O)CCCN2CCC(C(O)(c3ccccc3)c3ccccc3)CC2)cc1` (centres undefined) [TERFENADINE], for which the figures for the Time with Heart [36] and in the data set on Heart [37] were 125 ms and 99.83 ms, respectively.

Usually IC50 stands for the point on the concentration scale where inhibition reaches its midpoint. The term half-life denotes how long it takes for the measured level to halve.
